Laboratory results taken from patent publication US9958439B2, “Carbohydrate detection” (RICHTER LIFE SCIENCE DEVELOPMENT AB, priority 2012, dated 2018).
Where two headings read alike, the source gives them in different places.

How the values were obtained:
[1] = for RFU change (Correlation analysis): probe-specific excitation λ, emission 545 nm; for carbohydrate can be detected and/or differentiated by the LCO: conclusion from change in signal magnitude and/or shift in λmax
Procedure, shortened: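 Each LCO probe at 3 μM was added to two-fold serial dilutions of carbohydrate in dH2O (10–0.039 mg/ml for β-1,3-glucan, cellulose, chitin; 5–0.019 mg/ml for the others), run in triplicate. Excitation spectra were scanned 300–500 nm with emission at 545 nm. Detection was a reproducible λmax and/or RFU shift versus negative control, with linear regression of RFU against concentration.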

[2] = Procedure, shortened: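 LCO probes (3 μM) were added to serial two-fold dilutions of carbohydrate suspensions in dH2O, with excitation scanned 300–500 nm and emission at 545 nm. Detection was a reproducible λmax and/or RFU change versus no-carbohydrate control. RFU was regressed linearly against concentration at the λmax or the lowest-background excitation.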
[3] = remark: listed apart in the source
Procedure, shortened: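 LCO probes at 3 μM mixed with serial two-fold carbohydrate dilutions in water (10–0.039 or 5–0.019 mg/ml), run in triplicate. Excitation scanned 300–500 nm with emission at 545 nm; detection based on reproducible λmax or RFU shift against the no-carbohydrate control, with linear regression of RFU on concentration.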

[4] = for RFU change (Correlation analysis): probe-specific excitation λ, emission 545 nm; for carbohydrate can be detected and/or differentiated by the LCO: conclusion from change in signal magnitude and/or shift in λmax; remark: listed apart in the source
Procedure, shortened: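 LCO probes at 3 μM mixed with serial two-fold dilutions of carbohydrate in dH2O (10–0.039 or 5–0.019 mg/ml, depending on carbohydrate), in triplicate. Excitation scanned 300–500 nm or fixed per probe (λmax or lowest background), emission at 545 nm. Detection taken as reproducible λmax/RFU shift vs no-carbohydrate control; RFU regressed linearly on concentration.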

[5] = for RFU change (Correlation analysis): probe-specific excitation λ, emission 545 nm; for Gradient Parameters (gradient of regression line) / Linear relationship / Quality of Gradient: linear regression
Procedure, shortened: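 LCO probes at 3 μM mixed with serial twofold carbohydrate dilutions in dH2O (10–0.039 or 5–0.019 mg/ml, depending on carbohydrate). Excitation scanned 300–500 nm, emission read at 545 nm; detection defined as reproducible shift in λmax and/or RFU relative to negative control, with linear regression of RFU against concentration.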

[6] = remark: listed apart in the source
Procedure, shortened: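 3 μM of each LCO probe was added to serial two-fold carbohydrate dilutions in water (10–0.039 or 5–0.019 mg/ml). Excitation spectra were scanned 300–500 nm with emission at 545 nm, in triplicate. Detection was defined as a reproducible shift in λmax and/or RFU versus negative control, with linear regression of RFU against concentration.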

[7] = Chitin 10-[…], 3 μM probe, spectral analysis, Excitation 300-500, Emission 545
[8] = cellulose concentration vs RFU, linear regression
[9] = chitin concentration vs RFU, linear regression
[10] = β-1,3-glucan concentration vs RFU, linear regression
[11] = sodium alginate concentration vs RFU, linear regression
[12] = glucose concentration vs RFU, linear regression
[13] = Cellulobiose 5-0.019 mg/ml, 3 μM probe, spectral analysis, Excitation 300-500, Emission 545
[14] = amylose concentration vs RFU, linear regression
[15] = cellulobiose concentration vs RFU, linear regression
[16] = Glycogen 5-0.019 mg/ml, 3 μM probe, spectral analysis, Excitation 300-500, Emission 545
[17] = Chondroitin Sulfate A 5-0.019 mg/ml, 3 μM probe, spectral analysis, Excitation 300-500, Emission 545
[18] = Chondroitin Sulfate A concentration vs RFU, linear regression

With O=C([O-])C[C@H](NC(=O)Cc1cc(-c2cccs2)sc1-c1ccc(-c2sc(-c3cccs3)cc2CC(=O)N[C@@H](CC(=O)[O-])C(=O)[O-])s1)C(=O)[O-].[Na+].[Na+].[Na+].[Na+] [pHTA-Asp, penta Hydrogen Thiophene Acetic acid Aspartic acid] as the molecule, how does the “RFU change (Correlation analysis)” value ([1]; Cellulose 10-[…], 3 μM probe) read?
Its value is “Unclear”.

And the “RFU change (Signal deviation with increasing [Carbohydrate])” value ([1]; Cellulose 10-[…], 3 μM probe, spectral analysis, Excitation 300-500, Emission 545)?
Its value is “Unclear”.

What about the “RFU change (Correlation analysis)” value ([1]; Chitin 10-[…], 3 μM probe) of the same molecule?
The value was “Increases”.

And the “RFU change (Signal deviation with increasing [Carbohydrate])” value [1, 7]?
Its value is “Increases”.

What about the λmax change [1, 7] of the same molecule?
Its λmax change is “Redshift”.

What about the “carbohydrate can be detected and/or differentiated by the LCO” value ([1]; Chitin) of the same molecule?
The value was “can be detected and/or differentiated”.

What about the “Gradient Parameters (gradient of regression line)” value (“Gradient Parameters” for short) [1, 8] of the same molecule?
Its value is 12.3 ± 64.4.

What about the “Quality of Gradient” value [1, 8] of the same molecule?
Its value is “Horizontal”.

And the “Gradient Parameters” value [1, 9]?
The value was 3138 ± 491.2.

What about the Linear relationship [1, 9] of the same molecule?
The Linear relationship was “Significant”.

What about the “Quality of Gradient” value [1, 9] of the same molecule?
Its value is “Positive”.

And the Sensitivity ([1]; to cellulose)?
The Sensitivity was “No”.

What about the Sensitivity ([1]; to chitin) of the same molecule?
The Sensitivity was “Yes”.

And the Sensitivity ([1]; to β-1,3-glucan)?
Its Sensitivity is “Yes”.

What about the “carbohydrate can be detected and/or differentiated by the LCO” value ([1]; β-1,3-Glucan) of the same molecule?
The value was “can be detected and/or differentiated”.

And the “RFU change (Correlation analysis)” value ([1]; β-1,3-glucan 10-[…], 3 μM probe)?
Its value is “Decrease”.

What about the “RFU change (Signal deviation with increasing [Carbohydrate])” value ([1]; β-1,3-glucan 10-[…], 3 μM probe, spectral analysis, Excitation 300-500, Emission 545) of the same molecule?
Its value is “Decrease”.

What about the “Gradient Parameters” value [1, 10] of the same molecule?
Its value is −792.9 ± 97.3.

What about the “Quality of Gradient” value [1, 10] of the same molecule?
The value was “Negative”.

What about the “RFU change (Correlation analysis)” value ([2]; Sodium alginate 5-0.019 mg/ml, 3 μM probe, probe-specific excitation λ, emission 545 nm) of the same molecule?
Its value is “Unclear”.

And the “RFU change (Signal deviation with increasing [Carbohydrate])” value ([2]; Sodium alginate 5-0.019 mg/ml, 3 μM probe, spectral analysis, Excitation 300-500, Emission 545)?
Its value is “Unclear”.

And the “Gradient Parameters” value [2, 11]?
Its value is 41.4 ± 59.6.

And the “Quality of Gradient” value [2, 11]?
Its value is “Horizontal”.

And the Sensitivity ([2]; to sodium alginate)?
Its Sensitivity is “No”.

And the “RFU change (Correlation analysis)” value ([3]; Glucose 5-0.019 mg/ml, 3 μM probe, probe-specific excitation λ, emission 545 nm)?
Its value is “Increases”.

What about the “RFU change (Signal deviation with increasing [Carbohydrate])” value ([3]; Glucose 5-0.019 mg/ml, 3 μM probe, spectral analysis, Excitation 300-500, Emission 545) of the same molecule?
The value was “Increases”.

And the “carbohydrate can be detected and/or differentiated by the LCO” value ([3]; Glucose, conclusion from change in signal magnitude and/or shift in λmax)?
The value was “can be detected and/or differentiated”.

And the “Gradient Parameters” value [3, 12]?
The value was 625.1 ± 130.2.

What about the Linear relationship [3, 12] of the same molecule?
The Linear relationship was “Significant”.

What about the “Quality of Gradient” value [3, 12] of the same molecule?
Its value is “Positive”.

And the Sensitivity ([3]; to glucose)?
The Sensitivity was “Yes”.

What about the “RFU change (Correlation analysis)” value ([4]; Amylose 5-0.019 mg/ml, 3 μM probe) of the same molecule?
Its value is “Increases”.

And the “RFU change (Signal deviation with increasing [Carbohydrate])” value ([4]; Amylose 5-0.019 mg/ml, 3 μM probe, spectral analysis, Excitation 300-500, Emission 545)?
The value was “Increases”.

And the “carbohydrate can be detected and/or differentiated by the LCO” value ([4]; Amylose)?
The value was “can be detected and/or differentiated”.

What about the “RFU change (Correlation analysis)” value ([4]; Cellulobiose 5-0.019 mg/ml, 3 μM probe) of the same molecule?
Its value is “Increases”.

And the “RFU change (Signal deviation with increasing [Carbohydrate])” value [4, 13]?
The value was “Increases”.

And the λmax change [4, 13]?
The λmax change was “No change”.

What about the “carbohydrate can be detected and/or differentiated by the LCO” value ([4]; Cellulobiose) of the same molecule?
The value was “can be detected and/or differentiated”.

What about the “Gradient Parameters” value [4, 14] of the same molecule?
Its value is −7.6 ± 208.9.

What about the “Quality of Gradient” value [4, 14] of the same molecule?
The value was “Horizontal”.

What about the Linear relationship [4, 15] of the same molecule?
The Linear relationship was “Significant”.

What about the “Quality of Gradient” value [4, 15] of the same molecule?
Its value is “Positive”.

And the Sensitivity ([4]; to amylose)?
Its Sensitivity is “Yes”.

And the Sensitivity ([4]; to cellulobiose)?
The Sensitivity was “Yes”.

What about the “RFU change (Correlation analysis)” value ([5]; Glycogen 5-0.019 mg/ml, 3 μM probe) of the same molecule?
Its value is “Decreases”.

And the “RFU change (Signal deviation with increasing [Carbohydrate])” value [5, 16]?
Its value is “Decreases”.

What about the λmax change [5, 16] of the same molecule?
The λmax change was “Redshift”.

What about the “carbohydrate can be detected and/or differentiated by the LCO” value ([5]; Glycogen, conclusion from change in signal magnitude and/or shift in λmax) of the same molecule?
The value was “can be detected and/or differentiated”.

And the “RFU change (Correlation analysis)” value ([5]; Heparin 5-0.019 mg/ml, 3 μM probe)?
The value was “Unclear”.

And the “RFU change (Signal deviation with increasing [Carbohydrate])” value ([5]; Heparin 5-0.019 mg/ml, 3 μM probe, spectral analysis, Excitation 300-500, Emission 545)?
The value was “Unclear”.

And the “Gradient Parameters” value ([5]; glycogen concentration vs RFU)?
The value was −665.8 ± 88.9.

What about the Linear relationship ([5]; glycogen concentration vs RFU) of the same molecule?
The Linear relationship was “Significant”.

What about the “Quality of Gradient” value ([5]; glycogen concentration vs RFU) of the same molecule?
Its value is “Negative”.

And the “Gradient Parameters” value ([5]; heparin concentration vs RFU)?
The value was −3.2 ± 49.3.

And the Linear relationship ([5]; heparin concentration vs RFU)?
The Linear relationship was “Not Significant”.

And the “Quality of Gradient” value ([5]; heparin concentration vs RFU)?
The value was “Horizontal”.

And the Sensitivity ([5]; to glycogen)?
Its Sensitivity is “Yes”.

What about the Sensitivity ([5]; to heparin) of the same molecule?
The Sensitivity was “No”.

And the “RFU change (Correlation analysis)” value ([6]; Chondroitin Sulfate A 5-0.019 mg/ml, 3 μM probe, probe-specific excitation λ, emission 545 nm)?
Its value is “Unclear”.

And the “RFU change (Signal deviation with increasing [Carbohydrate])” value [6, 17]?
Its value is “Unclear”.

What about the λmax change [6, 17] of the same molecule?
Its λmax change is “No change”.

And the “Gradient Parameters” value [6, 18]?
Its value is −67.88 ± 90.0.

And the “Quality of Gradient” value [6, 18]?
The value was “Horizontal”.

What about the Sensitivity ([6]; to Chondroitin Sulfate A) of the same molecule?
The Sensitivity was “No”.
